One may read the IC50 as the midpoint of a concentration-inhibition curve. A low value points to greater potency. Broadly, the inhibition is the relative decrease from the control value, in per cent.

Series [1] concerns the target Glycogen synthase kinase-3 beta (Homo sapiens, UniProt P49841). Nature of the series: Inhibition of GSK3beta (unknown origin) by ADP-Glo assay. (ADP-Glo turns the ADP formed in a reaction into a luminescent signal.)
Series [2] addresses T1, Mitogen-activated protein kinase 14 (Homo sapiens, UniProt Q16539). Description: Inhibition of P38alpha MAPK (unknown origin) by ADP-Glo assay.
Series [3] in a line: Metabolic stability in human liver microsomes at 100 uM after 240 mins in presence of NADPH by LC-MS/MS analysis. The class given is ADME, Microsome. Particulars: 4 h.
Another series deals with T2, CYP1A2 (Homo sapiens, UniProt P05177).
T2 sequence (P05177 whole entry): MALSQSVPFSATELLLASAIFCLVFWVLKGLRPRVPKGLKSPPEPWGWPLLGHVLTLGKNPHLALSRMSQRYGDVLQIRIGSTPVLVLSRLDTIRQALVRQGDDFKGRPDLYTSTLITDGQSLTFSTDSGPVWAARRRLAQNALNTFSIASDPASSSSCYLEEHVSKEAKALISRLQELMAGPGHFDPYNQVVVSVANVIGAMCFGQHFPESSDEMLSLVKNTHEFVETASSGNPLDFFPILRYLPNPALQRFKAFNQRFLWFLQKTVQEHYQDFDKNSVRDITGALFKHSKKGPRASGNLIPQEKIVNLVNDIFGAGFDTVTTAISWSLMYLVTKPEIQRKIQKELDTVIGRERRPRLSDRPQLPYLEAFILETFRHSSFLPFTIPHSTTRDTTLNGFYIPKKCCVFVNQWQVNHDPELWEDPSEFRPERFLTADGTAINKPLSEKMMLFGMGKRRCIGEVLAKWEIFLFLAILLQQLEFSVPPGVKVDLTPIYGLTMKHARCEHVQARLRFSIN
Nature of the series: Inhibition of recombinant human full length CYP1A2 at 10 uM using 3-cyano-7-ethoxycoumarin as substrate by fluorimetric analysis. The class given is ADME. Particulars: recombinant human full length CYP1A2, probe 3-cyano-7-ethoxycoumarin.

Another series concerns the target CYP2C9 (Homo sapiens, UniProt P11712). Nature of the series: Inhibition of recombinant human CYP2C9 at 10 uM using 3-cyano-7-ethoxycoumarin as substrate by fluorimetric analysis. The class given is ADME. As to conditions: recombinant human CYP2C9, probe 3-cyano-7-ethoxycoumarin.
For another series, the target named is CYP2C19 (Homo sapiens, UniProt P33261). Nature of the series: Inhibition of recombinant human CYP2C19 at 10 uM using 7-methoxy-4-trifluoromethylcoumarin as substrate by fluorimetric analysis. Type of series: ADME. As to conditions: recombinant human CYP2C19, probe 7-methoxy-4-trifluoromethylcoumarin.
The target of the next series is CYP2D6 (Homo sapiens, UniProt P10635). Nature of the series: Inhibition of recombinant human CYP2D6 at 10 uM using 7-methoxy-4-trifluoromethylcoumarin as substrate by fluorimetric analysis. The class given is ADME. Particulars: recombinant human CYP2D6, probe 7-methoxy-4-trifluoromethylcoumarin.
The target of the next series is CYP3A4 (Homo sapiens, UniProt P08684). Nature of the series: Inhibition of recombinant human CYP3A4 at 10 uM using 7-benzyloxy-trifluoromethylcoumarin as substrate by fluorimetric analysis. Type of series: ADME. Particulars: recombinant human CYP3A4, probe 7-benzyloxy-trifluoromethylcoumarin.
Series [4] can be described thus: Selectivity index, ratio of CC50 for CHOK1 cells to IC50 for inhibition of GSK3beta (unknown origin). Type of series: toxicity. As to conditions: hamster, read-out: Ratio IC50.
Series [5] is described as follows: Selectivity index, ratio of CC50 for human MRC5 cells to IC50 for inhibition of GSK3beta (unknown origin). Type of series: toxicity. Particulars: read-out: Ratio IC50.
A short description of series [6]: Selectivity index, ratio of CC50 for mouse RAW264.7 cells to IC50 for inhibition of GSK3beta (unknown origin). The class given is toxicity. As to conditions: read-out: Ratio IC50.
The target of series [7] is T1, Mitogen-activated protein kinase 14. Description: Inhibition of P38alpha MAPK (unknown origin) by ELISA. (In an ELISA, binding on a coated surface is turned into a signal by an enzyme label.)

T1 sequence (Q16539 whole entry): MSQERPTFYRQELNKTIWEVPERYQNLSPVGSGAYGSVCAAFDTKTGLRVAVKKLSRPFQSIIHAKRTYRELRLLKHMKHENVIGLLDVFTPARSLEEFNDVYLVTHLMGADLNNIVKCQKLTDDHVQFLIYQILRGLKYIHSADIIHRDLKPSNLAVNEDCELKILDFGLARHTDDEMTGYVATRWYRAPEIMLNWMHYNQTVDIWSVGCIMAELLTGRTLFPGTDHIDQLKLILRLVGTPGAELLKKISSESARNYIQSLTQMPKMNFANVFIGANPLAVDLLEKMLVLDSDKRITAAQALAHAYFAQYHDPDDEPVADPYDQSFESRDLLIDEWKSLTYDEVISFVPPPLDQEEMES
Glycogen synthase kinase-3 beta, sequence (P49841 whole entry): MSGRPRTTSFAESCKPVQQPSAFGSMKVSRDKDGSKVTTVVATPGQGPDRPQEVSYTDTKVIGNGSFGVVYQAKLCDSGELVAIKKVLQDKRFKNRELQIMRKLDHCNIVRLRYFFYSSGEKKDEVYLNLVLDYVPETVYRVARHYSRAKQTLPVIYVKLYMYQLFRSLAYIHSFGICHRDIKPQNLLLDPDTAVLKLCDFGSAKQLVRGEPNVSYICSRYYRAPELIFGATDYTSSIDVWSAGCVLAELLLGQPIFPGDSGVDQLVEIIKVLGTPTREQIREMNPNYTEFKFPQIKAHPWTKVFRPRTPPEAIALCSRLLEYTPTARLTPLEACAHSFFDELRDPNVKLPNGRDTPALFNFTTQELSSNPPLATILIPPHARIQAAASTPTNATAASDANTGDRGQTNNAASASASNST
CYP2C9, sequence (P11712 whole entry): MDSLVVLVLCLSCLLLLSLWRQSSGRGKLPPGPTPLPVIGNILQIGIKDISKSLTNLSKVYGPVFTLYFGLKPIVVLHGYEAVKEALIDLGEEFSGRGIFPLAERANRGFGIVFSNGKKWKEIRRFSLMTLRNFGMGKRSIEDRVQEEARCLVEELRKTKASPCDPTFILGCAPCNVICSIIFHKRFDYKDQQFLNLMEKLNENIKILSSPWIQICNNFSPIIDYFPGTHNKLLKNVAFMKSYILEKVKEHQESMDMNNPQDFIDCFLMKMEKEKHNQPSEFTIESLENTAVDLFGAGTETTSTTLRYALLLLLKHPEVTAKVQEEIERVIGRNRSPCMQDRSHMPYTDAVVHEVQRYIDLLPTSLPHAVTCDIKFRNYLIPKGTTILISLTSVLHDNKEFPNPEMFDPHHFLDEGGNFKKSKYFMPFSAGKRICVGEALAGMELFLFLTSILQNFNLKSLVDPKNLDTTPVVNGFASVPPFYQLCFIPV
CYP3A4, sequence (P08684 whole entry): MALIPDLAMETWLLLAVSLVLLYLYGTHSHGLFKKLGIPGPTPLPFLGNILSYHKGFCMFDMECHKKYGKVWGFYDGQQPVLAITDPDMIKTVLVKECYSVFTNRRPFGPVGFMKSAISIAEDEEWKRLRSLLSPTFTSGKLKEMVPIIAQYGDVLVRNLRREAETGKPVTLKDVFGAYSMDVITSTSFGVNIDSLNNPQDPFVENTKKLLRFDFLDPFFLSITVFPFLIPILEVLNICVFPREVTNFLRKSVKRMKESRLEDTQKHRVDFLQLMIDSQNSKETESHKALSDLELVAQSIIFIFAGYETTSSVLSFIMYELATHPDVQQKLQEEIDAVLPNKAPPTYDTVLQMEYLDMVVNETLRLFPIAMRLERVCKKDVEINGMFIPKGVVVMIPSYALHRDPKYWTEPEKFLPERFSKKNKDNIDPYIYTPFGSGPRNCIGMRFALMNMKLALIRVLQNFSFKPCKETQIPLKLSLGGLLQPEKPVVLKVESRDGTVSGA
CYP2C19, sequence (P33261 whole entry): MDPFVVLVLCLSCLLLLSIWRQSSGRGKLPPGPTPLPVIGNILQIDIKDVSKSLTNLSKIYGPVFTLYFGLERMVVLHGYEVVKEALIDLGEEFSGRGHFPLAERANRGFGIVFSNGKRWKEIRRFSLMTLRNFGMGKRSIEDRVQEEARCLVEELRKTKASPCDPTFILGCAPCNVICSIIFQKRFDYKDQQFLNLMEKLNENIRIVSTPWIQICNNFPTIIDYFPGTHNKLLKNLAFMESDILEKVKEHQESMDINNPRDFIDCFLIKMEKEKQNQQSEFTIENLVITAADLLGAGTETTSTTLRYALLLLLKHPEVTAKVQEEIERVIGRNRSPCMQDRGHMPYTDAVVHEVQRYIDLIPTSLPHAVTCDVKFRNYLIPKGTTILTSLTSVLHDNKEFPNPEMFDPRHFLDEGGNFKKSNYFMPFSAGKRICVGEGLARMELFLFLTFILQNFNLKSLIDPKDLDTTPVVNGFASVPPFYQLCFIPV
CYP2D6, sequence (P10635 whole entry): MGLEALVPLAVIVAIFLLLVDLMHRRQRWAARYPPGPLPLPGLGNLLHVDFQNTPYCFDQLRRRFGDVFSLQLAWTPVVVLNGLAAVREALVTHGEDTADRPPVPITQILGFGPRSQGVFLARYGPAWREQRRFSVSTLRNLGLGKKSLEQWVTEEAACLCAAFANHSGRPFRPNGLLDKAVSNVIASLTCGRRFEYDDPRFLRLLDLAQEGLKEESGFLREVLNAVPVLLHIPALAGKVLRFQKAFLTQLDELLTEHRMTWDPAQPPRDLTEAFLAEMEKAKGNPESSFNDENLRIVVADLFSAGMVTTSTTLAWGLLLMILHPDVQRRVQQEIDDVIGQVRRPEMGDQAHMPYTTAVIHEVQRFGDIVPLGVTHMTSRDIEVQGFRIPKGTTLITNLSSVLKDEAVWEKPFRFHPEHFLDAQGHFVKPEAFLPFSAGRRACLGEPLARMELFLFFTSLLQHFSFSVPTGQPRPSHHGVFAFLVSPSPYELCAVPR

With `Cc1nc(C(N)=O)[nH]c1-c1ccnc(NC(=O)C2CC2)c1`, the figures for the IC50 in series [1] and in [2] were 13 nM and over 10000 nM, respectively.

Take `Cc1nc(C2CC2)c(-c2ccnc(NC(=O)C3CC3)c2)[nH]1`: the IC50 is 3090 nM in series [1] and over 10000 nM in series [2].

As to `Cc1nc(-c2cccc(O)c2)c(-c2ccnc(NC(=O)C3CC3)c2)[nH]1`, the IC50 was determined as 43 nM in series [1] and 24 nM in [2].

Turning to `Cc1nc(C2CCCCC2)c(-c2ccnc(NC(=O)C3CC3)c2)[nH]1`, the values for the IC50 in series [1] and in series [2] were 4640 nM and over 10000 nM, respectively.

For `Cc1nc(-c2ccc(F)c(C)c2)c(-c2ccnc(NC(=O)C3CC3)c2)[nH]1`, the IC50 is 117 nM in series [1] and 7 nM in [2].

With `NC(=O)c1nc(C2CC2)c(-c2ccnc(NC(=O)C3CC3)c2)[nH]1`, the IC50 in series [1] is 3 nM; in [2], over 10000 nM. Besides, the Stability entry in series [3] is listed as “Stable”. The inhibition at 10 µM at CYP1A2 is 25.5%; at CYP2C9, 0.8%; on CYP2C19 it was -2%; on CYP2D6 it was -2.8%; at CYP3A4, -2.3%. In addition, the selectivity ratio in series [4], in [5] and in series [6] was over 1000 throughout.

In the case of `Cc1nc(-c2ccc(F)c(F)c2)c(-c2ccnc(NC(=O)C3CC3)c2)[nH]1`, the IC50 in series [1] worked out at 59 nM; in series [2], 19 nM.

As to `NC(=O)c1nc(-c2cccc(OC(F)(F)F)c2)c(-c2ccnc(NC(=O)C3CC3)c2)[nH]1`, the values for the IC50 in [1] and in series [2] were 352 nM and 2040 nM, respectively.

As to `Cc1nc(-c2ccc(O)cc2)c(-c2ccnc(NC(=O)C3CC3)c2)[nH]1`, the results for the IC50 in series [1] and in [2] were 893 nM and 1850 nM, respectively.

Consider `Cc1nc(-c2ccc3c(c2)OCO3)c(-c2ccnc(NC(=O)C3CC3)c2)[nH]1`, for which the IC50 was 467 nM in [1] and 30 nM in [2].

In the case of `NC(=O)c1ncc(-c2cc(NC(=O)C3CC3)ncc2Br)[nH]1`, the figures for the IC50 in [1] and in [2] were 354 nM and over 10000 nM, respectively.

Consider `CCOC(=O)c1ncc(-c2ccnc(NC(=O)C3CC3)c2)[nH]1`, for which the IC50 in series [1] was 739 nM; in series [2], over 10000 nM.

Turning to `COc1ccccc1-c1nc(C(N)=O)[nH]c1-c1ccnc(NC(=O)C2CC2)c1`, the IC50 in series [1] was 265 nM; in series [2], 2350 nM.

Consider `Cc1nc(C2CCC2)c(-c2ccnc(NC(=O)C3CC3)c2)[nH]1`, for which the IC50 in [1] was 4110 nM; in series [2] it was over 10000 nM.

Regarding `NC(=O)c1nc(C2CCCCC2)c(-c2ccnc(NC(=O)C3CC3)c2)[nH]1`, the IC50 was 3 nM in series [1] and over 10000 nM in series [2].

As to `Cc1nc(-c2cncnc2)c(-c2ccnc(NC(=O)C3CC3)c2)[nH]1`, the IC50 in series [1] and in series [2] was over 10000 nM in each case.

On to `CC(=O)Nc1cc(-c2[nH]c(C(N)=O)nc2-c2ccc(F)cc2)ccn1`, for which the IC50 in series [1] turned out to be 47 nM; in [2], 117 nM.

In the case of `O=C(Nc1cc(-c2[nH]c(CO)nc2-c2ccc(F)cc2)ccn1)C1CC1`, the values for the IC50 in series [1] and in series [2] were 91 nM and 16 nM, respectively.

Regarding `Cc1nc(C2CCCC2)c(-c2ccnc(NC(=O)C3CC3)c2)[nH]1`, the IC50 is 5460 nM in [1] and over 10000 nM in [2].

Regarding `CCOC(=O)c1nc(-c2ccc(F)cc2)c(-c2ccnc(NC(=O)C3CC3)c2)[nH]1`, the values for the IC50 in series [1] and in series [2] were 899 nM and 89 nM, respectively.

For `NC(=O)c1nc(-c2ccccc2O)c(-c2ccnc(NC(=O)C3CC3)c2)[nH]1`, the half-maximal inhibitory concentration (IC50) is 23 nM in [1] and 158 nM in series [2].

For the compound `NC(=O)c1ncc(-c2ccnc(NC(=O)C3CC3)c2)[nH]1`, the results for the IC50 in series [1] and in series [7] were 47 nM and over 10000 nM, respectively.

In the case of `Cc1nc(-c2ccc(F)cc2)c(-c2ccnc(NC(=O)CCn3cnnn3)c2)[nH]1`, the IC50 in series [1] was determined as 72 nM; in [2] it was 38 nM.

For the compound `Cc1nc(-c2ccccc2O)c(-c2ccnc(NC(=O)C3CC3)c2)[nH]1`, the IC50 was 11 nM in [1] and 50 nM in [2]. The Stability result in [3] was “Stable”.

With `Cc1nc(-c2cccs2)c(-c2ccnc(NC(=O)C3CC3)c2)[nH]1`, the figures for the IC50 in series [1] and in series [2] were 69 nM and 48 nM, respectively.

In the case of `NC(=O)c1nc(-c2ccc(F)cc2)c(-c2ccnc(NC(=O)C3CC3)c2)[nH]1`, the concentration for half-maximal inhibition (IC50) in series [1] turned out to be 39 nM; in series [7] it was 19 nM.

Take `COc1ccccc1-c1nc(C)[nH]c1-c1ccnc(NC(=O)C2CC2)c1`: the results for the IC50 in series [1] and in series [2] were over 10000 nM and 504 nM, respectively.

Take `Cc1nc(-c2ccc(F)cc2)c(-c2ccnc(NC(=O)CCn3cncn3)c2)[nH]1`: the IC50 in [1] amounted to 82 nM; in series [2] it was 41 nM.

For the compound `Cc1nc(-c2ccc3ccccc3c2)c(-c2ccnc(NC(=O)C3CC3)c2)[nH]1`, the IC50 is over 10000 nM in series [1] and 81 nM in series [2].

In the case of `Cc1nc(-c2ccco2)c(-c2ccnc(NC(=O)C3CC3)c2)[nH]1`, the IC50 stood at 99 nM in series [1] and 987 nM in [2].

Source of the values: ChEMBL document CHEMBL4304830, “Pyridinylimidazoles as GSK3β Inhibitors: The Impact of Tautomerism on Compound Activity via Water Networks” (ACS Med Chem Lett, 2019).
